Measurements reported in ChEMBL document CHEMBL1157085, “Cytoglobosins A-G, cytochalasans from a marine-derived endophytic fungus, Chaetomium globosum QEN-14” (J Nat Prod, 2010).
Calls of active or inactive are those of the source. No cut-off for these calls is given here.

Experiments:
Format in all cases: functional, cell-based
[1] = tested on: P388; assay: Cytotoxicity against mouse P388 cells
[2] = tested on: A549; assay: Cytotoxicity against human A549 cells
[3] = tested on: KB; assay: Cytotoxicity against human KB cells

Compound | Activity [1] | IC50 [2] [nM] | Activity [3]
CC1=C(C)[C@H]2[C@H](Cc3c[nH]c4ccccc34)NC(=O)[C@]23C(=O)/C=C/[C@H](O)[C@H](O)/C(C)=C/[C@@H](C)C/C=C/[C@H]3[C@@H]1O [CYTOGLOBOSIN C] | inactive | 2260 | inactive
C=C1[C@@H](C)[C@H]2[C@H](Cc3c[nH]c4ccccc34)NC(=O)[C@]23C(=O)C[C@H]2C(=O)C(O)=C(C)[C@@H]2[C@@H](C)C/C=C/[C@H]3[C@@H]1O [CYTOGLOBOSIN A] | inactive | > 10000 | inactive
C/C1=C\[C@@H](C)C/C=C/[C@H]2C=C(CO)[C@@H](C)[C@H]3[C@H](Cc4c[nH]c5ccccc45)NC(=O)[C@]32C(=O)CCC(=O)C1=O [CYTOGLOBOSIN E] | inactive | > 10000 | inactive
C=C1[C@@H](C)[C@H]2[C@H](Cc3c[nH]c4ccccc34)NC(=O)[C@]23C(=O)/C=C/[C@H](O)[C@H](O)/C(C)=C/[C@@H](C)C/C=C/[C@H]3[C@@H]1O [CYTOGLOBOSIN B] | inactive | > 10000 | inactive
CC1=C[C@@H]2/C=C/C[C@H](C)/C=C(\C)[C@@H](O)[C@@H](O)/C=C/C(=O)[C@]23C(=O)N[C@@H](Cc2c[nH]c4ccccc24)[C@@H]3[C@@H]1C [CYTOGLOBOSIN D] | inactive | 2550 | inactive
